Measured values: patent US20170035863A1 (UNIVERSITY OF LEEDS, priority 2014, published 2017)

Experiments:
[1] = test system: murine tail bleeding model; assay: Murine tail bleeding time; format: in vivo, C57BL/6 male mice
From the text: (§1) The same animals employed for anticoagulant efficacy were subjected to tail bleeding immediately following the end of the efficacy experiments. Tails were cut with a scalpel at 2 mm diameter using a home-made device for measuring tail diameter. The tails were immediately suspended into lml warmed saline and the time taken to cessation of bleeding monitored (panel A). The collected saline/blood mix at the end of the experiments were frozen and subjected to haemoglobin determination (panel B).
as §1, with “1 ml” for “lml”, “monitored.” for “monitored (panel A). The collected saline/blood mix at the end of the experiments were frozen and subjected to haemoglobin determination (panel B).”

[2] = test system: human normal pool platelet poor plasma; assay: Activated Partial Thromboplastin Time (aPTT) clotting assay; format: biochemical; conditions: for Mean aPTT: platelet poor plasma, mean ± SEM
Experimental: The activated Partial Thromboplastin Time (aPTT) employed was the PTT Automate 5 reagent kit from Stago. The coagulometer (Start 4, Diagnostica Stago, Asnieres sur Seine Cedex, France) was preheated to 37° C. prior to starting any measurements. A sample of human normal pool platelet poor plasma (n=22) was defrosted at 37° C. from −80° C. […] Then 48.5 μL of PTT automate was added to the cuvette and left to incubate for 180 seconds at 37° C. in the coagulometer, after which 50 μL of 25 mM calcium chloride was immediately added to initiate clotting. At the end of the test, the time clotting times were recorded.
This method is known to the person skilled in the art.

thrombin = thrombin (Homo sapiens, UniProt P00734); assay: Thrombin activity, chromogenic substrate S-2238 (IC50); format: biochemical
Experimental: Thrombin activity was measured using a chromogenic substrate S-2238 (Quadratec). […] Kinetic readings at 405 nm were monitored every 12 seconds for a total duration of 3 hours at 37° C. Gradients of initial rates were determined and employed to calculate IC50 values using Grafit software.

| Compound | prolongation of bleeding time ([1]; 20 mg/kg, at the end of the experiment) [fold] | risk of bleeding ([1]; at doses achieving 50% inhibition of fibrin clot formation) | prolongation of bleeding time ([1]; at the dose required to achieve at least 50% inhibition of fibrin clot formation) [fold] | Mean aPTT ([2]; 0.11 nM, 3 min incubation) [s] | Mean aPTT ([2]; 0.44 nM) [s] | Mean aPTT ([2]; 0.88 nM) [s] | Mean aPTT ([2]; 1.75 nM) [s] | Mean aPTT ([2]; 3.50 nM) [s] | Mean aPTT ([2]; 7.00 nM) [s] | Mean aPTT ([2]; 14.00 nM) [s] | Mean aPTT ([2]; 28.00 nM) [s] | Mean aPTT ([2]; 56.00 nM) [s] | Mean aPTT ([2]; 112.00 nM) [s] | Mean aPTT ([2]; 224.00 nM) [s] | Mean aPTT ([2]; 448.00 nM) [s] | potency in aPTT, comparison ([2]; in plasma) | IC50 (thrombin) [nM] |
| --- | --- | --- | --- | --- | --- | --- | --- | --- | --- | --- | --- | --- | --- | --- | --- | --- | --- |
| CC[C@H](C)[C@H](NC(=O)[C@H](C)NC(=O)[C@H](CCC(=O)O)NC(=O)[C@H](Cc1ccccc1)NC(=O)[C@H](CC(=O)O)NC(=O)[C@H](Cc1ccccc1)NC(=O)[C@@H]1CCCN1C(=O)[C@@H]1CCCN1C(=O)[C@H](C)NC(=O)[C@@H](NC(=O)[C@H](CCCCN)NC(=O)[C@H](Cc1c[nH]cn1)NC(=O)[C@H](CCSC)NC(=O)[C@H](CCCNC(=N)N)NC(=O)[C@@H]1CCCN1C(=O)[C@H](CCC(=O)O)NC(=O)[C@H](C)NC(=O)[C@@H](NC(=O)[C@@H](N)CC(=O)O)C(C)C)[C@@H](C)O)C(=O)N1CCC[C@H]1C(=O)N[C@@H](CCC(=O)O)C(=O)N[C@@H](CCC(=O)O)C(=O)N[C@@H](Cc1ccc(O)cc1)C(=O)N[C@@H](Cc1ccc(OS(=O)(=O)O)cc1)C(=O)N[C@@H](CC(C)C)C(=O)O [SYM-3491-SO3] | ~2 | increases risk of bleeding | ~2 | 32.03 ± 0.07 | 32.07 ± 0.03 | 31.83 ± 0.03 | 32.20 ± 0.15 | 32.33 ± 0.07 | 33.27 ± 0.27 | 35.33 ± 0.33 | 38.23 ± 0.48 | 44.17 ± 0.43 | 49.87 ± 0.20 | 60.33 ± 0.17 | 70.97 ± 0.69 | slightly less than variegin | 172 ± 6.5 |
| bivalirudin [reference compound] | – | – | – | 32.03 ± 0.35 | 31.07 ± 0.09 | 31.20 ± 0.06 | 31.47 ± 0.37 | 32.43 ± 0.13 | 36.30 ± 0.20 | 40.27 ± 0.60 | 46.13 ± 1.25 | 53.97 ± 0.26 | 63.43 ± 2.32 | 79.50 ± 0.75 | 89.77 ± 3.99 | – | – |
